Measurements taken from ChEMBL document CHEMBL1201862, “PubChem BioAssay data set” (2004).
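Grown in 96-well plates, cells were treated for 48 hours with each compound at five concentrations. Insufficient inhibition: endpoint recorded as highest concentration tested. The concentration for 50% growth inhibition is given as GI50.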 Activity calls are given as the source filed them. Cut-off read from the data, not from the text of the source: active = GI50 up to about 1.1 µM and inactive = higher.

Assays:
Test in all cases: growth of human tumour cells (NCI), 48 h
Hs-578T = tested on: Hs-578T
SF-295 = tested on: SF-295
NCI-H226 = tested on: NCI-H226
PC-3 = tested on: PC-3
MDA-MB-231 = tested on: MDA-MB-231
HCT-15 = tested on: HCT-15
HL-60 = tested on: HL-60
UACC-257 = tested on: UACC-257
IGROV-1 = tested on: IGROV-1
T47D = tested on: T47D
MDA-N = tested on: MDA-N
HT-29 = tested on: HT-29
OVCAR-3 = tested on: OVCAR-3
DMS-114 = tested on: DMS-114
DLD-1 = tested on: DLD-1
KM-20L2 = tested on: KM-20L2
HOP-18 = tested on: HOP-18
MCF7 = tested on: MCF7
XF498 = tested on: XF498
DU-145 = tested on: DU-145

Structure (SMILES)	GI50 (Hs-578T)	GI50 (SF-295)	GI50 (NCI-H226)	GI50 (PC-3)	GI50 (MDA-MB-231)	GI50 (HCT-15)	GI50 (HL-60)	GI50 (UACC-257)	GI50 (IGROV-1)	GI50 (T47D)	GI50 (MDA-N)	GI50 (HT-29)	GI50 (OVCAR-3)	GI50 (DMS-114)	GI50 (DLD-1)	GI50 (KM-20L2)	GI50 (HOP-18)	GI50 (MCF7)	GI50 (XF498)	GI50 (DU-145)
CCOC(=O)c1c(Cl)nc2ccccc2c1N=[N+]=[N-]	24.9 µM (inactive)	23.9 µM (inactive)	32.1 µM (inactive)	32.2 µM (inactive)	16.2 µM (inactive)	18.6 µM	67 µM (inactive)	21.8 µM (inactive)	22 µM (inactive)	22.7 µM (inactive)	21 µM (inactive)	19.6 µM (inactive)	19.5 µM (inactive)							
CC(C)=CCC/C(C)=C/CC/C(C)=C/C(O)c1ccccc1 (stereo not given)		18.1 µM (inactive)	30.1 µM (inactive)			18.8 µM	22.5 µM (inactive)	18.2 µM (inactive)	19.8 µM (inactive)			18.4 µM (inactive)	20.1 µM (inactive)	18.3 µM (inactive)	18.5 µM (inactive)	21.3 µM (inactive)				
COC1(O)c2cccc(Cl)c2C(=O)N1C1(C(N)=O)CCCCC1 (stereo not given)		> 100 µM (inactive)	> 100 µM (inactive)			> 100 µM	> 100 µM (inactive)	> 100 µM (inactive)	> 100 µM (inactive)			> 43.7 µM (inactive)	> 100 µM (inactive)	> 100 µM (inactive)	> 100 µM (inactive)	> 100 µM (inactive)	> 100 µM (inactive)	> 100 µM (inactive)	> 100 µM (inactive)	
c1ccc(COc2cccc3ccc[n+](Cc4ccccc4)c23)cc1		4.26 µM (inactive)	3.31 µM (inactive)			27.5 µM	1.93 µM (inactive)	2.61 µM (inactive)	3.03 µM (inactive)			5.01 µM (inactive)		2.99 µM (inactive)	11.5 µM (inactive)	4.12 µM (inactive)	2.07 µM (inactive)		11.2 µM (inactive)	
O=C(O)C(SC(=S)c1ccc(C(=S)SC(C(=O)O)c2ccccc2)cc1)c1ccccc1 (stereo not given)		> 100 µM (inactive)	55.5 µM (inactive)			42.2 µM	> 100 µM (inactive)	> 100 µM (inactive)	> 100 µM (inactive)			67.1 µM (inactive)	56.5 µM (inactive)	35 µM (inactive)	> 100 µM (inactive)				> 100 µM (inactive)	
O=C(Nc1nccs1)c1c(O)nc2sccn2c1=O	> 10 µM (inactive)	> 10 µM (inactive)	> 10 µM (inactive)	> 10 µM (inactive)	> 10 µM (inactive)	> 10 µM	> 10 µM (inactive)		> 10 µM (inactive)	> 10 µM (inactive)	> 10 µM (inactive)	> 10 µM (inactive)	> 10 µM (inactive)					> 10 µM (inactive)		> 10 µM (inactive)
O=C(O)C1CC2C=CCC(C2)C1 (stereo not given)		> 100 µM (inactive)	> 100 µM (inactive)			> 100 µM	> 100 µM (inactive)	> 100 µM (inactive)	> 100 µM (inactive)			> 100 µM (inactive)	> 100 µM (inactive)	> 100 µM (inactive)	> 100 µM (inactive)	> 100 µM (inactive)	> 100 µM (inactive)		> 100 µM (inactive)	
CC1SC2=NC3=C(c4ccccc4C3=O)C(c3ccccc3Cl)N2C1=O (stereo not given)		> 100 µM (inactive)	> 100 µM (inactive)			> 100 µM	> 100 µM (inactive)	> 100 µM (inactive)	> 100 µM (inactive)			> 100 µM (inactive)	> 100 µM (inactive)	> 100 µM (inactive)	> 100 µM (inactive)	> 100 µM (inactive)			> 100 µM (inactive)	
C[Si](C)(N[Si](C)(C)OCCc1ccccc1)OCCc1ccccc1		> 100 µM (inactive)	> 100 µM (inactive)	> 100 µM (inactive)		> 100 µM	> 100 µM (inactive)	> 100 µM (inactive)	> 100 µM (inactive)	> 100 µM (inactive)	> 100 µM (inactive)	> 100 µM (inactive)	> 100 µM (inactive)					> 100 µM (inactive)		> 100 µM (inactive)
COc1ccc(Nc2cnc3cc(N)ccc3n2)cc1OC		34.3 µM (inactive)	53.8 µM (inactive)			> 100 µM	26.7 µM (inactive)	> 100 µM (inactive)	> 100 µM (inactive)			> 100 µM (inactive)	> 100 µM (inactive)	47 µM (inactive)	> 100 µM (inactive)	63.1 µM (inactive)			54.6 µM (inactive)	
C1=CCN(c2ccccc2)CC1		> 100 µM (inactive)				14.8 µM	11.9 µM (inactive)	28.4 µM (inactive)	29.9 µM (inactive)			23.6 µM (inactive)	25.4 µM (inactive)	32.4 µM (inactive)	15.5 µM (inactive)	55.6 µM (inactive)	63.5 µM (inactive)		17.1 µM (inactive)	
O=C(O)C(CSC(c1ccccc1)(c1ccccc1)c1ccccc1)/N=C/c1cccs1 (stereo not given)	3.2 µM (inactive)	1.26 µM (inactive)	9.12 µM (inactive)	1.89 µM (inactive)	1.57 µM (inactive)	4.24 µM	2.54 µM (inactive)	4.13 µM (inactive)	1.95 µM (inactive)	3.37 µM (inactive)	0.357 µM (active)	2.96 µM (inactive)	2.31 µM (inactive)					0.853 µM (active)		3.85 µM (inactive)
CC(Cc1ccccc1)NC1=NCCO1 (stereo not given)	29.3 µM (inactive)	> 100 µM (inactive)	> 100 µM (inactive)	34.8 µM (inactive)	16.2 µM (inactive)	96.4 µM			36 µM (inactive)	35.1 µM (inactive)	25.9 µM (inactive)	20.1 µM (inactive)						> 100 µM (inactive)		
CCN1CCC(O)(c2ccc(O)cc2)C(C(=O)c2ccc(O)cc2)C1 (stereo not given)	13.3 µM (inactive)	> 100 µM (inactive)	29.3 µM (inactive)	> 10 µM (inactive)	16.3 µM (inactive)	17.5 µM	31.7 µM (inactive)	13.7 µM (inactive)	21.6 µM (inactive)	8.77 µM (inactive)		25.8 µM (inactive)	18.2 µM (inactive)					3.18 µM (inactive)		27.6 µM (inactive)
CSc1nc2c(nc(N)n2C2OCC(O)C(O)C2O)c(=O)[nH]1 (stereo not given)		> 100 µM (inactive)	> 100 µM (inactive)				> 100 µM (inactive)	> 100 µM (inactive)	> 100 µM (inactive)			> 100 µM (inactive)	> 100 µM (inactive)	> 100 µM (inactive)	> 100 µM (inactive)	> 100 µM (inactive)	> 100 µM (inactive)		> 100 µM (inactive)	
N#CC(C#N)=C1CCC2C(=C(C#N)C#N)CCC12 (stereo not given)		> 100 µM (inactive)	> 100 µM (inactive)			> 100 µM	> 100 µM (inactive)	> 100 µM (inactive)	> 100 µM (inactive)			> 100 µM (inactive)	> 100 µM (inactive)	> 100 µM (inactive)	> 100 µM (inactive)	> 100 µM (inactive)			> 100 µM (inactive)	
C=C=C(Sc1ccccc1)C(C)(C)OC(C)=O		18.2 µM (inactive)	21.4 µM (inactive)			20.6 µM	26.7 µM (inactive)	17.2 µM (inactive)	17.6 µM (inactive)			18.7 µM (inactive)	16.3 µM (inactive)		16.5 µM (inactive)	26.3 µM (inactive)	20 µM (inactive)			27.2 µM (inactive)
O=C(C1=C(C(=O)c2ccccc2)SC2(S1)C(C(=O)c1ccccc1)=C(C(=O)c1ccccc1)Sc1c2ssc1=O)c1ccccc1	> 100 µM (inactive)	33.5 µM (inactive)	27 µM (inactive)	> 100 µM (inactive)	78.9 µM (inactive)	64.9 µM	11.2 µM (inactive)	> 100 µM (inactive)	> 100 µM (inactive)	97.7 µM (inactive)	41.1 µM (inactive)	> 100 µM (inactive)	67.6 µM (inactive)					> 100 µM (inactive)		72.8 µM (inactive)
CC(C)OP(=O)(OC(C)C)/C(F)=N/Nc1ccc([N+](=O)[O-])cc1		> 100 µM (inactive)				> 100 µM	> 100 µM (inactive)	> 100 µM (inactive)	> 100 µM (inactive)			> 100 µM (inactive)	> 100 µM (inactive)	> 100 µM (inactive)	> 100 µM (inactive)	> 100 µM (inactive)			> 100 µM (inactive)	
CCc1ccc2nc(-c3ccc(O)cc3)sc2c1		16.8 µM (inactive)	13.2 µM (inactive)	12.6 µM (inactive)	13.2 µM (inactive)	15.1 µM	2.96 µM (inactive)	12.7 µM (inactive)	14 µM (inactive)		18.5 µM (inactive)	16.6 µM (inactive)	13.6 µM (inactive)					20.2 µM (inactive)		15 µM (inactive)
CC[n+]1c(-c2ccccc2)c2cc(N)ccc2c2ccc(N)cc21 [HOMIDIUM BROMIDE]	< 0.01 µM (active)	2.82 µM (inactive)		5.06 µM (inactive)	8.55 µM (inactive)	55.5 µM	5.97 µM (inactive)	2.01 µM (inactive)		1.93 µM (inactive)	4.2 µM (inactive)	3.67 µM (inactive)	3.07 µM (inactive)					2 µM (inactive)		7.57 µM (inactive)
